Entries after “also recorded” stand apart in the source; their conditions may differ. Where two headings read alike, the source gives them in different places. Marks after values point to notes of the source that are not given here.

Data set [1] can be described thus: In vivo piglet trial (growth performance). Details: species or system weaned piglets (Large-White x Redon). As to conditions: for ADFI (g/d), Mean / ADWG (g/d), Mean / FCR, Mean: SEQ ID NO: 257 50 mg/kg feed, VevoVital 5000 mg/kg feed; for ADFI, % relative NC / ADWG, % relative NC / FCR, % relative NC: relative to negative control.
Data set [2] concerns Clostridium perfringens DSM756. The class given is cell-based. To be noted: for Diameter of clearing zone (mm): lysozymes 100 μg/ml, Bacitracin zinc salt 50 μg/ml; for Antimicrobial activity against Clostridium perfringens (in words): RDA; for Diameter of clearing zone (mm), bracketed with *: Incomplete inhibition of growth visible after MTT colouring: lysozyme 100 μg/ml.
Data set [3] in a line: In vivo broiler trial (growth performance).
The test system of data set [4] is Exiguobacterium undea (DSM14481). Description: Lysozyme activity turbidity assay (optical density drop at 540 nm). As to conditions: for Lysozyme activity against Exiguobacterium undea (in words): OD drop assay. It is filed as biochemical, Exiguobacterium undae.
In data set [5] the test system is Micrococcus lysodeikticus ATTC No. 4698. The data set is described as above. To be noted: for Lysozyme activity against Micrococcus lysodeikticus (in words): OD drop assay.
Setting [6] is: Finisher (d 36-42), SEQ ID NO: 257 25 mg/kg feed, Avilamycin 10 mg/kg.
Setting [7] is: Finisher (d 36-42), relative to unsupplemented control.
The mark [8] stands for this setting: Grower (d 22-36), SEQ ID NO: 257 25 mg/kg feed, Avilamycin 10 mg/kg.
Setting [9] is: Grower (d 22-36), relative to unsupplemented control.
The mark [10] stands for this setting: Starter (d 1-22), SEQ ID NO: 257 25 mg/kg feed, Avilamycin 10 mg/kg.
[11] abbreviates: Starter (d 1-22), relative to unsupplemented control.
The mark [12] stands for this setting: Whole period (day 1 to day 42), SEQ ID NO: 257 25 mg/kg feed, Avilamycin 10 mg/kg.
[13] abbreviates: Whole period, relative to unsupplemented control.

As for `O=C(O)c1ccccc1` [VevoVital, benzoic acid], in data set [1] (day 0-14), the “ADFI (g/d), Mean” value stood at 355 g/day; the “ADWG (g/d), Mean” value came to 304 g/day; the “FCR, Mean” value was 1.168^a; the “ADFI, % relative NC” value is listed as 98.6%. Besides, in data set [1] (day 0-14), the “ADWG, % relative NC” value was found to be 104.8% and the “FCR, % relative NC” value is given as 94.2%. Further, in data set [1] (day 0-42), the “ADFI (g/d), Mean” value is recorded as 709^ab g/d; the “ADWG (g/d), Mean” value is 526 g/day; the “FCR, Mean” value is 1.342^a; the “ADFI, % relative NC” value is reported as 96.6%. Further, in data set [1] (day 0-42), the “ADWG, % relative NC” value came to 105.4% and the “FCR, % relative NC” value was 90.4%. Also, in data set [1] (day 14-42), the “ADFI (g/d), Mean” value is reported as 886^ab g/d; the “ADWG (g/d), Mean” value amounted to 638 g/day; the “FCR, Mean” value is 1.398^a; the “ADFI, % relative NC” value came out at 95.3%. Further, in data set [1] (day 14-42), the “ADWG, % relative NC” value came out at 105.8% and the “FCR, % relative NC” value is given as 90.5%. In addition, the “Improvement on FCR compared to the negative control” value in data set [1] (overall period (day 0 to day 42), lysozyme 50 mg/kg, VevoVital 5000 mg/kg) amounted to 9.6%. For the same molecule, the “Improvement of ADWG compared to NC” value in data set [1] (pre-starter period (days 0-14)) is recorded as 4.8%. In addition, the “Improvement of ADWG compared to NC” value in data set [1] (starter period (days 14-42)) amounted to 5.8%. Moreover, the “Improvement to FCR compared to NC” value in data set [1] (starter period, from day 15 to day 42, SEQ ID NO: 257 50 mg/kg, VevoVital (PC)) stood at 9.5%. The “Improvement of ADWG compared to NC” value in data set [1] (whole period (day 0 to day 42)) came out at 5.4%.
For “Bacitracin zinc salt [reference compound]”, the “Diameter of clearing zone (mm)” value in data set [2] (Experiment 1, 1/2 MHB pH 6) is 11 mm; in data set [2] (Experiment 1, 1/10 MHB pH 7), 22 mm; in data set [2] (Experiment 2, 1/10 MHB pH 7), 18 mm.
Consider `COC[C@H]1O[C@@H](OC2OC[C@@H]3O[C@]4(O[C@H]3[C@H]2OC(=O)C(C)C)O[C@H](C)[C@@](O)(C(C)=O)[C@@H]2OCO[C@H]24)[C@@H](OC)[C@@H](O)[C@@H]1O[C@@H]1O[C@H](C)[C@H](OC)[C@H](O[C@H]2C[C@@]3(C)OC4(C[C@@H](O)[C@H](O[C@H]5C[C@@H](O)[C@H](OC(=O)c6c(C)c(Cl)c(O)c(Cl)c6OC)[C@@H](C)O5)[C@@H](C)O4)O[C@@H]3[C@@H](C)O2)[C@H]1O` (stereo partly drawn) [Avilamycin, reference compound], for which, in data set [3] (setting [6]), the FCR amounted to 1.982, the “Feed intake (g/b)” value came out at 1460 g/b and the “Weight gain (g/b)” value was 738 g/b. In addition, in data set [3] (setting [7]), the “FCR, Relative to C (%)” value was 101.1%; the “Feed intake, Relative to C (%)” value came out at 98.2%; the “Weight gain, Relative to C (%)” value amounted to 97.0%. Moreover, in data set [3] (setting [8]), the FCR was 1.683, the “Feed intake (g/b)” value stood at 2242 g/b and the “Weight gain (g/b)” value is given as 1334 g/b. In addition, in data set [3] (setting [9]), the “FCR, Relative to C (%)” value turned out to be 97.7%; the “Feed intake, Relative to C (%)” value was determined as 98.1%; the “Weight gain, Relative to C (%)” value is reported as 100.4%. Moreover, in data set [3] (setting [10]), the FCR was 1.452, the “Feed intake (g/b)” value came to 1593 g/b and the “Weight gain (g/b)” value is given as 1102 g/b. Further, in data set [3] (setting [11]), the “FCR, Relative to C (%)” value was 100.8%; the “Feed intake, Relative to C (%)” value is reported as 101.0%; the “Weight gain, Relative to C (%)” value is listed as 100.6%. For the same molecule, in data set [3] (setting [12]), the EPEF was determined as 397, the FCR is on record as 1.669, the “Feed intake (g/b)” value worked out at 5312 g/b and the Motality was determined as 12.5. Also, the “Weight gain (g/b)” value in data set [3] (setting [12]) is 3184 g/b. For the same molecule, in data set [3] (setting [13]), the “EPEF, Relative to C (%)” value was determined as 95.0%; the “FCR, Relative to C (%)” value came out at 99.3%; the “Feed intake, Relative to C (%)” value is recorded as 99.3%; the “Weight gain, Relative to C (%)” value stood at 99.9%. Also, the “EPEF worse by (compared to NC diet)” value in data set [3] (whole period, Avilamycin 10 mg/kg) came out at 5.0%. For the same molecule, in data set [3] (whole period, GH24 lysozyme 25 mg/kg, Avilamycin 10 mg/kg), the “FCR improvement compared to NC diet” value was 0.7%.

B1: SEQ ID NO: 291: mature GH24 lysozyme from Trichophaea minuta (protein, listed as Trichophaea minuta)
chain: YPAKVDLRCRSSPSTSASVVRTYSKGSEIQISCQTTGTSVEGSNVWDKTQHGCYVADYYVKTGHSGIFTTKCGSSSGGGSCKPPPINAATVALIKEFEGFVAKPAPDPIGLPTVGYGHLCKTKGCKEVPYSFPLTQTTATKLLQSDIKTFTSCVSNYVKDSVKLNDNQFGALSSWAFNVGCGNIQTSSLIKRLNAGENPNTVAAQELPKWKYAGGKVLPGLVRRRKAEVALFKKPSSVQAHPPKC
modifications: mat_peptide (1)..(245)
notes: mature GH24 lysozyme from Trichophaea minuta
In the case of B1, in data set [4], the “Lysozyme activity against Exiguobacterium undea (in words)” value was “good activity”. Moreover, in data set [4] (assay pH 6 (Table 14)), the “Lysozyme Activity against Exiguobacterium undae as measured by Optical Density Drop” value is listed as “++++”. Also, the “Lysozyme activity against Micrococcus lysodeikticus (in words)” value in data set [5] is given as “good activity”. Further, the “Lysozyme Activity against Micrococcus lysodeikticus as measured by Optical Density Drop” value in data set [5] (assay pH 6 (Table 14)) was “++++”.

B2: SEQ ID NO: 294: mature GH24 lysozyme from Chaetomium sp. ZY287 (protein, listed as Chaetomium sp.)
chain: YKISGSSVNCRSGPGTNYPVKKTYANGDEVTISCQTTGTNVEGNNIWDKTQHGCYVADKYVKTGKDGFVTKKCGSSGGGGGGKTCKAPKSNAATVDLIASFEGFRANIYTDATGHPTVGYGHMCTKSRCAEVKYKIPLSKADGKKLLADDMAKFEKCIKEMLNSKAKLNLNQYGALVSWSFNVGCGAAKGSQLVSRLNKGENPNTVLSNELPKWVHGNGKVLPGLVRRRNAEIALAKKSGSGAALPVKC
modifications: mat_peptide (1)..(249)
notes: mature GH24 lysozyme from Chaetomium sp; ZY287
B2: the “Lysozyme activity against Exiguobacterium undea (in words)” value in data set [4] is given as “good activity”. The “Lysozyme Activity against Exiguobacterium undae as measured by Optical Density Drop” value in data set [4] (assay pH 7 (Table 14)) was “+++”. Further, the “Lysozyme activity against Micrococcus lysodeikticus (in words)” value in data set [5] is “good activity”. The “Lysozyme Activity against Micrococcus lysodeikticus as measured by Optical Density Drop” value in data set [5] (assay pH 7 (Table 14)) was “+++”.

B3: SEQ ID NO: 279: mature GH24 lysozyme from Acremonium alcalophilum, mature sequence of SEQ ID NO: 4 of WO 2013/076259; no LED (protein, listed as Acremonium alcalophilum)
chain: QCVGPEVNSASINLIKEFEGWYPDIYVDPAGYPTVGYGHLCSDSSCSDVSYSIPLSEADGENLLRDDITNFQNCITWQTASSVVLNANQYGALVSWAFNVGCGASESSSLIARLNAGEDPNTVAEEELPRWNQGGGQVLPGLVRRRAAEVELHQIPTDVAALPACS
modifications: mat_peptide (1)..(166)
notes: no LED
Consider B3, for which the “Diameter of clearing zone (mm)” value in data set [2] (Experiment 1, 1/2 MHB pH 6) came out at 0 mm; in data set [2] (Experiment 1, 1/10 MHB pH 7), 0 mm; in data set [2] (Experiment 2, 1/10 MHB pH 7), 0 mm. Also, in data set [2] (tested conditions (1/10 MHB pH 7 and 1/2 MHB pH 6)), the “Antimicrobial activity against Clostridium perfringens (in words)” value (shortened to “Antimicrobial activity”) is given as “do not have any activity; also recorded: did not inhibit growth”.

B4: SEQ ID NO: 270: mature GH24 catalytic domain from Trichophaea saccata with QCVG-linker (SEQ ID NO: 257 lacking the LED) (protein)
chain: QCVGCKPPPINAATVALIKEFEGFVPKPAPDPIGLPTVGYGHLCKTKGCKEVPYSFPLTQETATKLLQSDIKTFTSCVSNYVKDSVKLNDNQYGALASWAFNVGCGNVQTSSLIKRLNAGENPNTVAAQELPKWKYAGGKVMPGLVRRRNAEVALFKKPSSVQAHPPKC
Regarding B4, the “Diameter of clearing zone (mm)” value in data set [2] (Experiment 1, 1/2 MHB pH 6) is given as 0 mm. The “Diameter of clearing zone (mm), bracketed with *: Incomplete inhibition of growth visible after MTT colouring” value in data set [2] (Experiment 1, 1/10 MHB pH 7) is “(8)* mm”; in data set [2] (Experiment 2, 1/10 MHB pH 7) it was “(5)* mm”. Also, the “Antimicrobial activity” value in data set [2] (50% MHB, pH 6) is reported as “no activity”. Moreover, in data set [5], the “Lysozyme activity against Micrococcus lysodeikticus (in words)” value is on record as “no lysozyme activity”. Moreover, the “Lysozyme Activity against Micrococcus lysodeikticus as measured by Optical Density Drop” value in data set [5] (assay pH 6) was “−”.

B5: SEQ ID NO: 269: amino acid sequence deduced from SEQ ID NO: 268: GH24 catalytic domain with QCVG-linker and signal peptide; precursor of SEQ ID NO: 270 (protein)
chain: MAKVSTLTIALLTMASQARAQCVGCKPPPINAATVALIKEFEGFVPKPAPDPIGLPTVGYGHLCKTKGCKEVPYSFPLTQETATKLLQSDIKTFTSCVSNYVKDSVKLNDNQYGALASWAFNVGCGNVQTSSLIKRLNAGENPNTVAAQELPKWKYAGGKVMPGLVRRRNAEVALFKKPSSVQAHPPKC
B5: the “Antimicrobial activity” value is recorded as “incomplete inhibition of growth” in data set [2] (1/10 MHB, pH 7) and “no inhibition of growth” in data set [2] (50% MHB, pH 6).

These data come from patent US12324447B2, “Animal feed compositions and uses thereof” (priority 2015, dated 2025).
